Among the data in patent US20240058422A1, “GLUCAGON-LIKE PEPTIDE-1 RECEPTOR ANTAGONISTS” (INDIANA UNIVERSITY RESEARCH AND TECHNOLOGY CORPORATION, priority 2022, published 2024) are solubility and IC50 values, retold here.

In data set [1] the target is T1, GLP-1R (Homo sapiens, UniProt P43220). Briefly: GLP-1 receptor-mediated cAMP induction, luciferase reporter gene antagonism assay. Format: cell-based. Also noted: host or cells: HEK 293. As to conditions: antagonism of 0.05 nM GLP-1, HEK 293 cells. A digest of the protocol:
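HEK 293 cells cotransfected with human GLP-1 receptor and CRE-luciferase were serum-deprived 16 h, then given serial peptide dilutions followed by 0.05 nM GLP-1 and incubated 5 h at 37° C.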
Target sequence in this assay (P43220 24-463): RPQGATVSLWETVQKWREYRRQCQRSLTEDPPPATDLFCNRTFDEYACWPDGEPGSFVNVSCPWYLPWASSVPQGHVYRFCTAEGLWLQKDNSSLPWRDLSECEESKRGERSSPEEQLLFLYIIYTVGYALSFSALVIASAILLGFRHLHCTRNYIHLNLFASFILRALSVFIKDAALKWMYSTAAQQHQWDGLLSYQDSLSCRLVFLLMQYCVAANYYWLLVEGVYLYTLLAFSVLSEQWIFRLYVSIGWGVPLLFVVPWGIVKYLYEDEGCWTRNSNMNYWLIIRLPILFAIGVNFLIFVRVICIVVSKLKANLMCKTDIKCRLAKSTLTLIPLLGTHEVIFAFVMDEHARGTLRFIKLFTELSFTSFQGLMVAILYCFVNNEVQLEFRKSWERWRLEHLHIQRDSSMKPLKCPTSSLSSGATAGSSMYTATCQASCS

Data set [2] concerns the target T1, GLP-1R. Briefly: IC50 nM. Also noted: host or cells: HEK 293. The protocol:
Table printed on a drawing sheet, Fig. 10
Head of the field: IC50 nM
Where the first naming reader finds the target: description_of_the_figure: as measured in an in vitro assay using GLP-1R over-expressing 293 cells
Target sequence in this assay (P43220 24-463 limits assumed): as the sequence (P43220 24-463) above

The mark [3] stands for this setting: pH 7.7, Solubility [mg/mL] 80 mM AmBicarb pH7.7.
The mark [4] stands for this setting: Table 4, Aib variants of 9-40am Jant4 K40[C16], read-out: Bioactivity IC50.
[5] abbreviates: pH 7.7, Solubility 80 mM AmeBicarb pH7.7.
The mark [6] stands for this setting: Table 3, amino acid substitution variants of Jant4-K40, read-out: Bioactivity IC50.
Setting [7] is: pH 7.7, Solubility [mg/mL] PBS pH7.7.

≈ marks a conversion by molar mass, not a printed value. Starred links: 1 amine or outer side, 2 acyl side, 3 side chain; linkers in the order of their positions; H or OH if unused. Non-standard residues stand in square brackets, D forms with d. Residues, ends and D or L forms follow the SMILES beside them. Groups on a side chain read outwards from the residue. *: point of attachment. C18 diacid = O=C(O)CCCCCCCCCCCCCCCCC(=O)*; γGlu = O=C(O)[C@H](CCC(=O)[*:2])N[*:1]; Palmitoyl = CCCCCCCCCCCCCCCC(=O)*; AEEA = NCCOCCOCC(=O)O; Aib = CC(C)(N)C(=O)O

As usually defined, the solubility is the concentration that dissolves in the medium under given conditions. For orientation: IC50 means the concentration that gives 50% inhibition. On to `CCCCCCCCCCCCCCCC(=O)NCCCC[C@H](NC(=O)[C@H](CO)NC(=O)[C@@H]1CCCN1C(=O)[C@@H]1CCCN1C(=O)[C@@H]1CCCN1C(=O)[C@H](C)NC(=O)CNC(=O)[C@H](CO)NC(=O)[C@H](CO)NC(=O)[C@@H]1CCCN1C(=O)CNC(=O)CNC(=O)[C@H](CCCCN)NC(=O)[C@@H](NC(=O)C(C)(C)NC(=O)[C@H](Cc1c[nH]c2ccccc12)NC(=O)[C@H](C)NC(=O)[C@@H](NC(=O)[C@H](Cc1ccccc1)NC(=O)[C@H](CCC(=O)O)NC(=O)[C@H](CCCNC(=N)N)NC(=O)[C@@H](NC(=O)[C@H](C)NC(=O)[C@H](CCC(N)=O)NC(=O)[C@H](CCC(=O)O)NC(=O)[C@H](CCC(=O)O)NC(=O)[C@H](CC(C)C)NC(=O)[C@H](Cc1ccc(O)cc1)NC(=O)[C@H](CO)NC(=O)[C@H](CO)NC(=O)[C@@H](NC(=O)[C@@H](N)CC(=O)O)C(C)C)C(C)C)[C@@H](C)CC)C(C)C)C(N)=O` [compound 44] (H-DVSSYLEEQAVREFIAW[Aib]VKGGPSSGAPPPSK(Palmitoyl)-NH2), for which the solubility in the data set “Solubility in buffer” (PBS, pH 7.7, Solubility [mg/mL] PBS pH7.7, Table 4, PBS pH7.7) amounted to 0.1 mg/mL (≈ 27.7 µM); in “physchem” (setting [3]) it was 19 mg/mL (≈ 5260 µM). Further, at GLP-1R [1] (setting [4]), the IC50 turned out to be 8 nM.

Take `CCCCCCCCCCCCCCCC(=O)NCCCC[C@H](NC(=O)[C@H](CO)NC(=O)[C@@H]1CCCN1C(=O)[C@@H]1CCCN1C(=O)[C@@H]1CCCN1C(=O)[C@H](C)NC(=O)CNC(=O)[C@H](CO)NC(=O)[C@H](CO)NC(=O)[C@@H]1CCCN1C(=O)CNC(=O)CNC(=O)[C@H](CCCCN)NC(=O)[C@@H](NC(=O)[C@H](CC(C)C)NC(=O)[C@H](Cc1c[nH]c2ccccc12)NC(=O)[C@H](C)NC(=O)[C@@H](NC(=O)[C@H](Cc1ccccc1)NC(=O)[C@H](CCC(=O)O)NC(=O)[C@H](CCCNC(=N)N)NC(=O)[C@@H](NC(=O)[C@H](C)NC(=O)[C@H](CCC(N)=O)NC(=O)[C@H](CCC(=O)O)NC(=O)[C@H](CCC(=O)O)NC(=O)[C@H](CC(C)C)NC(=O)[C@H](Cc1ccc(O)cc1)NC(=O)[C@H](CO)NC(=O)[C@H](CO)NC(=O)[C@@H](NC(=O)[C@@H](N)CC(=O)O)C(C)C)C(C)C)[C@@H](C)CC)C(C)C)C(N)=O` [compound 47] (H-DVSSYLEEQAVREFIAWLVKGGPSSGAPPPSK(Palmitoyl)-NH2; N-terminus assumed): the solubility in “Solubility in buffer” (80 mM ammonium bicarbonate buffer, pH 7.7, Solubility 80 mM AmeBicarb pH7.7, Table 3, 80 mM AmeBicarb pH7.7) is 6.1 mg/mL (≈ 1680 µM); in “physchem” (setting [3]) it was 6.1 mg/mL (≈ 1680 µM).

`CCCCCCCCCCCCCCCC(=O)N[C@@H](CCC(=O)NCCOCCOCC(=O)NCCCC[C@H](NC(=O)[C@H](CO)NC(=O)[C@@H]1CCCN1C(=O)[C@@H]1CCCN1C(=O)[C@@H]1CCCN1C(=O)[C@H](C)NC(=O)CNC(=O)[C@H](CO)NC(=O)[C@H](CO)NC(=O)[C@@H]1CCCN1C(=O)CNC(=O)CNC(=O)[C@H](CCCNC(=N)N)NC(=O)[C@@H](NC(=O)[C@H](CC(C)C)NC(=O)[C@H](Cc1c[nH]c2ccccc12)NC(=O)[C@H](C)NC(=O)[C@@H](NC(=O)[C@H](Cc1ccccc1)NC(=O)[C@H](CCC(=O)O)NC(=O)[C@H](CCCNC(=N)N)NC(=O)[C@@H](NC(=O)[C@H](C)NC(=O)[C@H](CCC(N)=O)NC(=O)[C@H](CCC(=O)O)NC(=O)[C@H](CCC(=O)O)NC(=O)[C@H](CC(C)C)NC(=O)[C@H](Cc1ccc(O)cc1)NC(=O)[C@H](CO)NC(=O)[C@H](CO)NC(=O)[C@@H](NC(=O)[C@@H](N)CC(=O)O)C(C)C)C(C)C)[C@@H](C)CC)C(C)C)C(=O)O)C(=O)O` [compound 77] (H-DVSSYLEEQAVREFIAWLVRGGPSSGAPPPSK([AEEA-γGlu-Palmitoyl])-OH) had a solubility in “physchem” (setting [5]) greater than 20 mg/mL. Also, the IC50 at GLP-1R [1] (setting [6]) was 13 nM.

With `CCCCCCCCCCCCCCCC(=O)N[C@@H](CCC(=O)NCCOCCOCC(=O)NCCCC[C@H](NC(=O)[C@H](CO)NC(=O)[C@@H]1CCCN1C(=O)[C@@H]1CCCN1C(=O)[C@@H]1CCCN1C(=O)[C@H](C)NC(=O)CNC(=O)[C@H](CO)NC(=O)[C@H](CO)NC(=O)[C@@H]1CCCN1C(=O)CNC(=O)CNC(=O)[C@H](CCCNC(=N)N)NC(=O)[C@@H](NC(=O)[C@H](CC(C)C)NC(=O)[C@H](Cc1c[nH]c2ccccc12)NC(=O)[C@H](CCC(=O)O)NC(=O)[C@@H](NC(=O)[C@H](Cc1ccccc1)NC(=O)[C@H](CCC(=O)O)NC(=O)[C@H](CCCNC(=N)N)NC(=O)[C@@H](NC(=O)[C@H](C)NC(=O)[C@H](CCC(N)=O)NC(=O)[C@H](CCC(=O)O)NC(=O)[C@H](CCC(=O)O)NC(=O)[C@H](CC(C)C)NC(=O)[C@H](Cc1ccc(O)cc1)NC(=O)[C@H](CO)NC(=O)[C@H](CO)NC(=O)[C@@H](NC(=O)[C@@H](N)CC(=O)O)C(C)C)C(C)C)[C@@H](C)CC)C(C)C)C(=O)O)C(=O)O` [compound 78] (H-DVSSYLEEQAVREFIEWLVRGGPSSGAPPPSK([AEEA-γGlu-Palmitoyl])-OH; N-terminus assumed), the solubility in “physchem” (setting [5]) was greater than 20 mg/mL. Further, the concentration for half-maximal inhibition (IC50) at GLP-1R [1] (setting [6]) is 19 nM.

Turning to `CCCCCCCCCCCCCCCC(=O)N[C@@H](CCC(=O)NCCOCCOCC(=O)NCCCC[C@H](NC(=O)[C@H](CO)NC(=O)[C@@H]1CCCN1C(=O)[C@@H]1CCCN1C(=O)[C@@H]1CCCN1C(=O)[C@H](C)NC(=O)CNC(=O)[C@H](CO)NC(=O)[C@H](CO)NC(=O)[C@@H]1CCCN1C(=O)CNC(=O)CNC(=O)C(C)(C)NC(=O)[C@H](CCCNC(=N)N)NC(=O)[C@H](CC(C)C)NC(=O)[C@H](Cc1c[nH]c2ccccc12)NC(=O)[C@H](CCC(=O)O)NC(=O)[C@@H](NC(=O)[C@H](Cc1ccccc1)NC(=O)[C@H](CCC(=O)O)NC(=O)[C@H](CCCNC(=N)N)NC(=O)[C@@H](NC(=O)[C@H](C)NC(=O)[C@H](CCC(N)=O)NC(=O)[C@H](CCC(=O)O)NC(=O)[C@H](CCC(=O)O)NC(=O)[C@H](CC(C)C)NC(=O)[C@H](Cc1ccc(O)cc1)NC(=O)[C@H](CO)NC(=O)[C@H](CO)NC(=O)[C@@H](NC(=O)[C@@H](N)CC(=O)O)C(C)C)C(C)C)[C@@H](C)CC)C(=O)O)C(=O)O` [compound 80] (H-DVSSYLEEQAVREFIEWLR[Aib]GGPSSGAPPPSK([AEEA-γGlu-Palmitoyl])-OH; N-terminus assumed), in the data set “physchem” (setting [5]), the solubility was greater than 20 mg/mL. In addition, the IC50 at GLP-1R [1] (setting [6]) stood at 106 nM.

`CCCCCCCCCCCCCCCC(=O)NCCCC[C@H](NC(=O)[C@H](CO)NC(=O)[C@@H]1CCCN1C(=O)[C@@H]1CCCN1C(=O)[C@@H]1CCCN1C(=O)[C@H](C)NC(=O)CNC(=O)[C@H](CO)NC(=O)[C@H](CO)NC(=O)[C@@H]1CCCN1C(=O)CNC(=O)CNC(=O)[C@H](CCCCN)NC(=O)C(C)(C)NC(=O)[C@H](CC(C)C)NC(=O)[C@H](Cc1c[nH]c2ccccc12)NC(=O)[C@H](C)NC(=O)[C@@H](NC(=O)[C@H](Cc1ccccc1)NC(=O)[C@H](CCC(=O)O)NC(=O)[C@H](CCCNC(=N)N)NC(=O)[C@@H](NC(=O)[C@H](C)NC(=O)[C@H](CCC(N)=O)NC(=O)[C@H](CCC(=O)O)NC(=O)[C@H](CCC(=O)O)NC(=O)[C@H](CC(C)C)NC(=O)[C@H](Cc1ccc(O)cc1)NC(=O)[C@H](CO)NC(=O)[C@H](CO)NC(=O)[C@@H](NC(=O)[C@@H](N)CC(=O)O)C(C)C)C(C)C)[C@@H](C)CC)C(N)=O` [compound 81] (H-DVSSYLEEQAVREFIAWL[Aib]KGGPSSGAPPPSK(Palmitoyl)-NH2): the solubility is 19 mg/mL (≈ 5240 µM) in “physchem” (setting [3]) and 1.6 mg/mL (≈ 441 µM) in the data set “physchem” (setting [7]). Besides, at GLP-1R [1] (setting [4]), the IC50 was 23 nM.

Regarding `CCCCCCCCCCCCCCCC(=O)NCCCC[C@H](NC(=O)[C@H](CO)NC(=O)[C@@H]1CCCN1C(=O)[C@@H]1CCCN1C(=O)[C@@H]1CCCN1C(=O)[C@H](C)NC(=O)CNC(=O)[C@H](CO)NC(=O)[C@H](CO)NC(=O)[C@@H]1CCCN1C(=O)CNC(=O)CNC(=O)C(C)(C)NC(=O)[C@@H](NC(=O)[C@H](CCCCN)NC(=O)[C@H](Cc1c[nH]c2ccccc12)NC(=O)[C@H](C)NC(=O)[C@@H](NC(=O)[C@H](Cc1ccccc1)NC(=O)[C@H](CCC(=O)O)NC(=O)[C@H](CCCNC(=N)N)NC(=O)[C@@H](NC(=O)[C@H](C)NC(=O)[C@H](CCC(N)=O)NC(=O)[C@H](CCC(=O)O)NC(=O)[C@H](CCC(=O)O)NC(=O)[C@H](CC(C)C)NC(=O)[C@H](Cc1ccc(O)cc1)NC(=O)[C@H](CO)NC(=O)[C@H](CO)NC(=O)[C@@H](NC(=O)[C@@H](N)CC(=O)O)C(C)C)C(C)C)[C@@H](C)CC)C(C)C)C(N)=O` [compound 82] (H-DVSSYLEEQAVREFIAWKV[Aib]GGPSSGAPPPSK(Palmitoyl)-NH2), the figures for the solubility in “physchem” (setting [3]) and in “physchem” (setting [7]) were 14.2 mg/mL (≈ 3930 µM) and 0.1 mg/mL (≈ 27.7 µM), respectively. Further, the IC50 at GLP-1R [1] (setting [4]) is 6 nM.

In the case of `CC[C@H](C)[C@H](NC(=O)[C@H](Cc1ccccc1)NC(=O)[C@H](CCC(=O)O)NC(=O)[C@H](CCCNC(=N)N)NC(=O)[C@@H](NC(=O)[C@H](C)NC(=O)[C@H](CCC(N)=O)NC(=O)[C@H](CCC(=O)O)NC(=O)[C@H](CCC(=O)O)NC(=O)[C@H](CC(C)C)NC(=O)[C@H](Cc1ccc(O)cc1)NC(=O)[C@H](CO)NC(=O)[C@H](CO)NC(=O)[C@@H](NC(=O)[C@H](CC(=O)O)NC(=O)CCCCCCCCCCCCCCCCC(=O)O)C(C)C)C(C)C)C(=O)N[C@@H](C)C(=O)N[C@@H](Cc1c[nH]c2ccccc12)C(=O)N[C@@H](CC(C)C)C(=O)N[C@H](C(=O)N[C@@H](CCCNC(=N)N)C(=O)NCC(=O)NCC(=O)N1CCC[C@H]1C(=O)N[C@@H](CO)C(=O)N[C@@H](CO)C(=O)NCC(=O)N[C@@H](C)C(=O)N1CCC[C@H]1C(=O)N1CCC[C@H]1C(=O)N1CCC[C@H]1C(=O)N[C@@H](CO)C(=O)O)C(C)C` [compound 1416] ({C18 diacid}-DVSSYLEEQAVREFIAWLVRGGPSSGAPPPS-OH), inhibition at GLP-1R [2] was half-maximal at 36 nM (IC50).

The compound “H-DVSSYLEEQAVREFIAWLVKGGPSSGAPPPSK-NH2 [compound 95]” showed a solubility in “physchem” (setting [3]) of 12.7 mg/mL. Also, the 50% inhibitory concentration (IC50) on GLP-1R [1] (Table 2, C16 linker variants of 9-40amide Jant4 K40[X], read-out: Biactivity IC50) was 281 nM.
